Test results as given in patent US20220016060A1, “USE OF SODIUM 2-(3-PENTYLPHENYL)ACETATE IN THE TREATMENT OF ALSTRÖM SYNDROME” (LIMINAL BIOSCIENCES LIMITED, priority 2018, published 2022).
Where “and” joins values, the source holds several entries; their conditions need not be identical. Equal values may be shown once.

Legend:
Format in all cases: in vivo, human
[1] = tested on: ALMS patients; assay: Fasting plasma glucose (FPG); conditions: for Change from Baseline FPG, Mean / Change from Baseline FPG, Median / FPG: 800 mg daily oral; for FPG: individual subjects
Protocol: (§1) The study was a Phase 2, single-centre, single-arm, open-label study of sodium 2-(3-pentylphenyl)acetate administered at a total daily oral dose of 800 mg for up to 72 weeks in subjects with ALMS was undertaken. The initial duration of the study was 24 weeks, and subjects were offered to enrol into an extension phase of 36 or 48 weeks. The schedule of study procedures for the enrolment, intervention, and assessments for participants is outlined in FIG. 1. Sodium 2-(3-pentylphenyl)acetate was formulated in soft gelatine capsules containing 200 mg of Sodium 2-(3-pentylphenyl)acetate (amorphous powder) per capsule, polyethylene glycol 400, National Formulary (NF), hydrochloric acid (for pH adjustment), and water.

[2] = tested on: ALMS patients; assay: Non-Alcoholic Fatty Liver Disease (NAFLD) Fibrosis Score; conditions: for Change from Baseline NAFLD Score with an FPG > 5.6 mmol/L, Mean (SD) / Change from Baseline NAFLD Score with an FPG > 5.6 mmol/L, Median / NAFLD Fibrosis Score in Subjects with an FPG > 5.6 mmol/L: 800 mg daily oral; for NAFLD Fibrosis Score in Subjects with an FPG > 5.6 mmol/L: individual subjects
Protocol: as §1, with “water. The effect of sodium 2-(3-pentylphenyl)acetate on liver histology in ALMS patients was also assessed by measuring the Non-Alcoholic Fatty Liver Disease (NAFLD) Fibrosis Score. Increased NAFLD fibrosis score may be associated with hepatic dysfunction.” for “water.”

[3] = tested on: ALMS patients; assay: HOMA-B based on C-peptide and fasting plasma glucose; conditions: for Change from Baseline HOMA-B Based on C-Peptide and FPG, Mean / Change from Baseline HOMA-B Based on C-Peptide and FPG, Median: 800 mg
Protocol: as §1, with “water. E) Homeostasis Model Assessment for Steady State Beta-Cell Function Based on C-Peptide and Fasting Plasma Glucose (HOMA-B [C-Peptide/FPG]) The effect of sodium 2-(3-pentylphenyl)acetate on HOMA-B (C-peptide/FPG) was assessed, and the results are presented in Table 24.” for “water.”

[4] = tested on: ALMS patients; assay: Histological examination of adipocyte tissue, average adipocyte area
Protocol: The study was a Phase 2, single-centre, single-arm, open-label study of sodium 2-(3-pentylphenyl)acetate administered at a total daily oral dose of 800 mg for up to 72 weeks in subjects with ALMS was undertaken. The initial duration of the study was 24 weeks, and subjects were offered to enrol into an extension phase of 36 or 48 weeks. The schedule of study procedures for the enrolment, intervention, and assessments for participants is outlined in FIG. 1. Sodium 2-(3-pentylphenyl)acetate was formulated in soft gelatine capsules containing 200 mg of Sodium 2-(3-pentylphenyl)acetate (amorphous powder) per capsule, polyethylene glycol 400, National Formulary (NF), hydrochloric acid (for pH adjustment), and water. Histological examination of adipocyte tissue in an ALMS subject (before study drug treatment) was characterized by hypertrophy and coalescence of adipocytes, forming giant vesicular vacuolation/steatosis (FIG. 2A). […] Decreases in average adipocyte area from baseline ranged from 11% to 26%. Of note, the largest increase in average adipocyte area from baseline occurred in Subject 826-001-012 (25%), who had ongoing medical histories of hypothyroidism, myocardial ischemia, T2D, chronic kidney disease, and dyslipidemia. This subject was also characterized as obese with a baseline BMI of 38.13 kg/m^2.

[5] = tested on: ALMS patients; assay: C-peptide; conditions: for Change from Baseline C-Peptide, Mean / Change from Baseline C-Peptide, Median: 800 mg daily oral
Protocol: as §1

[6] = Subject 826-001-001, 204-day break in treatment
[7] = Subject 826-001-007, 32-day break in treatment
[8] = 800 mg, Week 24, mean of subjects
[9] = 800 mg, Week 24, median of subjects

CCCCCc1cccc(CC(=O)[O-])c1.[Na+] [sodium 2-(3-pentylphenyl)acetate]
Change from Baseline FPG, Mean ([1]; EP Week 12 (Week 36), N=10): 0.63 mmol/L
Change from Baseline FPG, Median ([1]; EP Week 12 (Week 36), N=10): -0.10 mmol/L
Change from Baseline FPG, Mean ([1]; EP Week 24 (Week 48), N=10): 0.70 mmol/L
Change from Baseline FPG, Median ([1]; EP Week 24 (Week 48), N=10): -0.10 mmol/L
Change from Baseline FPG, Mean ([1]; EP Week 36 (Week 60), N=9): 1.49 mmol/L
Change from Baseline FPG, Median ([1]; EP Week 36 (Week 60), N=9): 0.00 mmol/L
Change from Baseline FPG, Mean ([1]; EP Week 48 (Week 72), N=3): -0.93 mmol/L
Change from Baseline FPG, Median ([1]; EP Week 48 (Week 72), N=3): 0.00 mmol/L
increase in FPG from baseline [1, 6]: 7.4 mmol/L
increase in FPG from baseline [1, 7]: 7.9 mmol/L
Change from Baseline FPG, Mean ([1]; Week 12, N=11): 0.30 mmol/L
Change from Baseline FPG, Median ([1]; Week 12, N=11): -0.40 mmol/L
Change from Baseline FPG, Mean ([1]; Week 24, N=12): 0.33 mmol/L
Change from Baseline FPG, Median ([1]; Week 24, N=12): 0.30 mmol/L
FPG ([1]; EP Week 12 (Week 36)): 18.0 mmol/L and 4.8 mmol/L and 4.3 mmol/L and 5.2 mmol/L and 9.1 mmol/L and 4.4 mmol/L and 6.5 mmol/L and 6.6 mmol/L and 5.5 mmol/L and 19.9 mmol/L
FPG ([1]; EP Week 24 (Week 48)): 23.3 mmol/L and 3.8 mmol/L and 4.7 mmol/L and 6.9 mmol/L and 10.2 mmol/L and 4.8 mmol/L and 5.7 mmol/L and 6.2 mmol/L and 5.6 mmol/L and 13.8 mmol/L
FPG ([1]; EP Week 36 (Week 60)): 22.7 mmol/L and 5.0 mmol/L and 4.6 mmol/L and 13.8 mmol/L and 5.3 mmol/L (2×) and 4.7 mmol/L and 8.6 mmol/L and 14.9 mmol/L
FPG ([1]; EP Week 48 (Week 72)): 12.5 mmol/L and 5.5 mmol/L and 4.7 mmol/L
FPG ([1]; Week 12): 22.8 mmol/L and 4.6 mmol/L and 4.3 mmol/L and 5.3 mmol/L and 16.9 mmol/L and 7.0 mmol/L and 5.5 mmol/L and 17.6 mmol/L and 6.5 mmol/L and 5.0 mmol/L and 4.7 mmol/L
FPG ([1]; Week 24): 12.9 mmol/L and 4.9 mmol/L and 4.7 mmol/L and 5.7 mmol/L and 11.1 mmol/L and 4.8 mmol/L and 7.2 mmol/L and 7.4 mmol/L and 22.6 mmol/L and 6.5 mmol/L and 13.5 mmol/L and 6.1 mmol/L
subjects in whom NAFLD fibrosis score decreased or did not change from baseline ([2]; 7/12 subjects): 58.3%
Change from Baseline NAFLD Score with an FPG > 5.6 mmol/L, Mean (SD) ([2]; EP Week 12 (Week 36), N=10): −0.39 (0.683)
Change from Baseline NAFLD Score with an FPG > 5.6 mmol/L, Median ([2]; EP Week 12 (Week 36), N=10): −0.69
Change from Baseline NAFLD Score with an FPG > 5.6 mmol/L, Mean (SD) ([2]; EP Week 24 (Week 48), N=9): −0.34 (0.758)
Change from Baseline NAFLD Score with an FPG > 5.6 mmol/L, Median ([2]; EP Week 24 (Week 48), N=9): −0.28
Change from Baseline NAFLD Score with an FPG > 5.6 mmol/L, Mean (SD) ([2]; EP Week 36 (Week 60), N=9): −0.16 (0.684)
Change from Baseline NAFLD Score with an FPG > 5.6 mmol/L, Median ([2]; EP Week 36 (Week 60), N=9): −0.14
increase in NAFLD fibrosis score from baseline [2, 6]: 0.7
Change from Baseline NAFLD Score with an FPG > 5.6 mmol/L, Mean (SD) ([2]; Week 12, N=11): −0.35 (0.582)
Change from Baseline NAFLD Score with an FPG > 5.6 mmol/L, Median ([2]; Week 12, N=11): −0.34
Change from Baseline NAFLD Score with an FPG > 5.6 mmol/L, Mean (SD) ([2]; Week 24, N=9): 0.16 (0.446)
Change from Baseline NAFLD Score with an FPG > 5.6 mmol/L, Median ([2]; Week 24, N=9): 0.21
NAFLD Fibrosis Score in Subjects with an FPG > 5.6 mmol/L ([2]; EP Week 12 (Week 36)): −1.9 and −3.1 and −3.8 (4×) and −1.6 and −1.2 and 0.2 and −3.6
NAFLD Fibrosis Score in Subjects with an FPG > 5.6 mmol/L ([2]; EP Week 24 (Week 48)): −1.9 and −4.4 and −3.0 and −3.8 and −0.8 and −1.0 and −3.1 and 0.5 and −4.2
NAFLD Fibrosis Score in Subjects with an FPG > 5.6 mmol/L ([2]; EP Week 36 (Week 60)): −1.5 and −3.7 and −2.9 (2×) and −4.2 and −1.1 and 0.2 and −3.4 and −3.8
NAFLD Fibrosis Score in Subjects with an FPG > 5.6 mmol/L ([2]; Week 12): −2.5 and −1.8 and −3.9 (2×) and −3.1 and −1.4 and −0.8 (2×) and −3.3 and 0.6 and −4.3
NAFLD Fibrosis Score in Subjects with an FPG > 5.6 mmol/L ([2]; Week 24): −1.5 and −1.9 and −2.7 (2×) and −3.8 and −0.2 and −2.9 and −1.0 and −3.7
Change from Baseline HOMA-B Based on C-Peptide and FPG, Mean ([3]; EP Week 12 (Week 36), N 10): 1.70
Change from Baseline HOMA-B Based on C-Peptide and FPG, Median ([3]; EP Week 12 (Week 36), N 10): 16.50
Change from Baseline HOMA-B Based on C-Peptide and FPG, Mean ([3]; EP Week 24 (Week 48), N 9): 24.57
Change from Baseline HOMA-B Based on C-Peptide and FPG, Median ([3]; EP Week 24 (Week 48), N 9): −1.90
Change from Baseline HOMA-B Based on C-Peptide and FPG, Mean ([3]; EP Week 36 (Week 60), N 8): 1.42
Change from Baseline HOMA-B Based on C-Peptide and FPG, Median ([3]; EP Week 36 (Week 60), N 8): 8.00
Change from Baseline HOMA-B Based on C-Peptide and FPG, Mean ([3]; EP Week 48 (Week 72), N 3): 60.17
Change from Baseline HOMA-B Based on C-Peptide and FPG, Median ([3]; EP Week 48 (Week 72), N 3): 89.40
Change from Baseline HOMA-B Based on C-Peptide and FPG, Mean ([3]; Week 12, N 11): 52.58
Change from Baseline HOMA-B Based on C-Peptide and FPG, Median ([3]; Week 12, N 11): 35.60
Change from Baseline HOMA-B Based on C-Peptide and FPG, Mean ([3]; Week 24, N 12): −1.60
Change from Baseline HOMA-B Based on C-Peptide and FPG, Median ([3]; Week 24, N 12): 0.60
subjects in whom HOMA-B (C-peptide/FPG) increased from baseline ([3]; 9/12 subjects): 75.0%
reduction in HOMA-B (C-peptide/FPG) [3, 6]: 62.4
reduction in HOMA-B (C-peptide/FPG) [3, 7]: 33.4
reduction in HOMA-B (C-peptide/FPG) ([3]; Subject 826-001-013, 30-day break in treatment): 96.7
Average Adipocyte Area, % Change from Baseline, Mean [4, 8]: −9%
Average Adipocyte Area, Mean [4, 8]: 5550.7 μm^2
Average Adipocyte Area, % Change from Baseline, Median [4, 9]: −12%
Average Adipocyte Area, Median [4, 9]: 5195.1 μm^2
subjects in whom average adipocyte area decreased from baseline ([4]; 6/9 subjects, after 24 weeks): 66.7%
largest increase in average adipocyte area from baseline ([4]; Subject 826-001-012, after 24 weeks): 25%
histological examination of adipocyte tissue ([4]; an ALMS subject, after 24 weeks of treatment with 800 mg, FIG. 2B): more distinct adipocytes were seen that were smaller in size with no observed coalescence
Change from Baseline C-Peptide, Mean ([5]; EP Week 12 (Week 36), N=10): -350.90 pmol/L
Change from Baseline C-Peptide, Median ([5]; EP Week 12 (Week 36), N=10): 6.00 pmol/L
Change from Baseline C-Peptide, Mean ([5]; EP Week 24 (Week 48), N=9): -286.67 pmol/L
Change from Baseline C-Peptide, Median ([5]; EP Week 24 (Week 48), N=9): -40.00 pmol/L
Change from Baseline C-Peptide, Mean ([5]; EP Week 36 (Week 60), N=8): 219.88 pmol/L
Change from Baseline C-Peptide, Median ([5]; EP Week 36 (Week 60), N=8): -31.00 pmol/L
Change from Baseline C-Peptide, Mean ([5]; EP Week 48 (Week 72), N=3): 810.00 pmol/L
Change from Baseline C-Peptide, Median ([5]; EP Week 48 (Week 72), N=3): 737.00 pmol/L
increase in C-peptide from baseline [5, 6]: 817 pmol/L
increase in C-peptide from baseline ([5]; Subject 826-001-004, 30-day break in treatment): 1.757e+06 pmol/L
increase in C-peptide from baseline ([5]; Subject 826-001-005, 39-day break in treatment): 737 pmol/L
increase in C-peptide from baseline [5, 7]: 3580 pmol/L
Change from Baseline C-Peptide, Mean ([5]; Week 12, N=12): 473.50 pmol/L
Change from Baseline C-Peptide, Median ([5]; Week 12, N=12): 102.50 pmol/L
Change from Baseline C-Peptide, Mean ([5]; Week 24, N=12): 41.25 pmol/L
Change from Baseline C-Peptide, Median ([5]; Week 24, N=12): 84.50 pmol/L
